Experimental findings from publication PMC7369637, “Inhibition of Resistance-Refractory P. falciparum Kinase PKG Delivers Prophylactic, Blood Stage, and Transmission-Blocking Antiplasmodial Activity” (Cell Chemical Biology, 2020) are described below.

Molecules are shown by their SMILES. Read-outs that look alike come from different tables or passages of the source.

The test system of experiment [1] is ed. Dd2-B2 TKL3T1268R. Briefly: 72-h ABS assay, CRISPR/Cas9-edited line. The class given is cell-based. To be noted: Plasmodium falciparum, parent Dd2-B2 wild-type. The procedure: (§1) Synchronicity was achieved using three rounds of sorbitol treatment on early rings, spaced 48 h apart, followed by magnetic purification of segmented schizonts following the final sorbitol treatment. Parasites were highly synchronous to within a 3 h window of development. Assays were repeated on at least three independent occasions (each with technical duplicates) and statistical significance was assessed using Mann Whitney U tests.
(§2) The resulting MMV030084-resistant parasites were cloned by limiting dilution ([Baker et al., 2017]) to obtain genetically homogenous cultures for further phenotyping and whole-genome sequencing. A second round of […]. […] Drug susceptibility of resistant lines was assessed using a 72 h ABS assay as described above, and a Mann Whitney U test was applied to assess statistically significant differences.
(§3) A CRISPR/Cas9 targeted gene editing strategy using an all-in-one plasmid approach was applied to introduce T1268R, I1250M and T1268R+I1250M in wild-type Dd2-B2 parasites or to produce a TKL3 KO line by inserting a stop codon and frameshift at amino acid position 1268. […] WR99210 (2.5 nM) was added to the culture medium 24 h after electroporation to select for successfully transfected parasites and was maintained in the medium until edited parasites were detected. […]

Experiment [2] relates to ed. Dd2-B2 TKL3I1250M. Nature of the experiment: 72-h ABS assay, CRISPR/Cas9-edited line. The class given is cell-based. The settings on record: Plasmodium falciparum, parent Dd2-B2 wild-type. On the procedure: as §1, §2, §3
The subject of experiment [3] is Pf Dd2-B2 ABS parasites. Nature of the experiment: 72-h asexual blood stage (ABS) growth inhibition assay, Dd2-B2. It counts as cell-based, Plasmodium falciparum. On the procedure: as §1
Experiment [4] concerns the target T1, human protein extracts (Mixed: HEK-293/ K-562/ Placenta/ Hep G2) (Homo sapiens, UniProt Q7L576).
T1 construct: endogenous in cells; host or cells: mixture of HEK-293, K-562, Hep G2 and placenta
Nature of the experiment: Chemoproteomic profiling, MS/MS data for all quantified proteins (Table S1 E3). It counts as binding. The procedure:
(§4) Human extracts were prepared as described ([Bantscheff et al., 2011]). Briefly, frozen cell pellets were homogenized in lysis buffer (50 mM Tris-HCl, 0.8% Igepal-CA630, 5% glycerol, 150 mM NaCl, 1.5 mM MgCl2, 25 mM sodium fluoride, 1 mM sodium vanadate, 1 mM DTT, pH 7.5). One cOmplete EDTA-free protease inhibitor tablet (Roche) was added per 25 ml. Samples were dispersed using a Dounce homogenizer, rotated for 30 min at 4°C, and centrifuged at 20,000g for 10 min at 4°C. Supernatants were then recentrifuged at 145,000g for 1 h at 4°C. Protein concentrations were determined using a Bradford assay (BioRad). Aliquots were snap frozen in liquid nitrogen and stored at −80°C.
(§5) Kinobeads were prepared by immobilizing Bis-(III) indolyl-maleimide, purvalanol B, staurosporine and CZC8004, and the analogs of PD173955, sunitinib and vandetanib on NHS-activated Sepharose 4 beads (Amersham) ([Bantscheff et al., 2007]). […] The chemoproteomic affinity-capturing experiments were performed as previously described ([Bantscheff et al., 2011]). Briefly, beads were washed and equilibrated in lysis buffer (50 mM Tris-HCl, pH 7.4, 0.4 % Igepal-CA630, 1.5 mM MgCl2, 5 % Glycerol, 150 mM NaCl, 25 mM NaF, 1 mM Na3VO4, 1 mM DTT, and one cOmplete EDTA-free protease inhibitor tablet (Roche) per 25 mL). […] 10 samples were measured in parallel (TMT 10-plex ([Werner et al., 2014])) to generate values for the affinity of the beads to the bound proteins (“depletion” values, 4 samples) and to generate IC50 values (6 samples) in a single experiment. Apparent dissociation constants were determined after accounting for protein depletion by the beads ([Bantscheff et al., 2011]). […]
(§6) Proteins were digested according to a modified single pot solid-phase sample preparation (SP3) protocol ([Hughes et al., 2014]). Peptides were labeled with isobaric mass tags (Thermo Fisher Scientific, Waltham, MA) using 10-plex TMT reagents, enabling relative quantification of 10 conditions in a single experiment ([Werner et al., 2014]). […]

The target of experiment [5] is T2, human protein extracts (Mixed: HEK-293/ K-562/ Placenta/ Hep G2) (Homo sapiens, UniProt P21127).
T2 construct: endogenous in cells; host or cells: mixture of HEK-293, K-562, Hep G2 and placenta
Described as above. The class given is binding. On the procedure:
as §4, §5, §6

T1 sequence (Q7L576 whole entry): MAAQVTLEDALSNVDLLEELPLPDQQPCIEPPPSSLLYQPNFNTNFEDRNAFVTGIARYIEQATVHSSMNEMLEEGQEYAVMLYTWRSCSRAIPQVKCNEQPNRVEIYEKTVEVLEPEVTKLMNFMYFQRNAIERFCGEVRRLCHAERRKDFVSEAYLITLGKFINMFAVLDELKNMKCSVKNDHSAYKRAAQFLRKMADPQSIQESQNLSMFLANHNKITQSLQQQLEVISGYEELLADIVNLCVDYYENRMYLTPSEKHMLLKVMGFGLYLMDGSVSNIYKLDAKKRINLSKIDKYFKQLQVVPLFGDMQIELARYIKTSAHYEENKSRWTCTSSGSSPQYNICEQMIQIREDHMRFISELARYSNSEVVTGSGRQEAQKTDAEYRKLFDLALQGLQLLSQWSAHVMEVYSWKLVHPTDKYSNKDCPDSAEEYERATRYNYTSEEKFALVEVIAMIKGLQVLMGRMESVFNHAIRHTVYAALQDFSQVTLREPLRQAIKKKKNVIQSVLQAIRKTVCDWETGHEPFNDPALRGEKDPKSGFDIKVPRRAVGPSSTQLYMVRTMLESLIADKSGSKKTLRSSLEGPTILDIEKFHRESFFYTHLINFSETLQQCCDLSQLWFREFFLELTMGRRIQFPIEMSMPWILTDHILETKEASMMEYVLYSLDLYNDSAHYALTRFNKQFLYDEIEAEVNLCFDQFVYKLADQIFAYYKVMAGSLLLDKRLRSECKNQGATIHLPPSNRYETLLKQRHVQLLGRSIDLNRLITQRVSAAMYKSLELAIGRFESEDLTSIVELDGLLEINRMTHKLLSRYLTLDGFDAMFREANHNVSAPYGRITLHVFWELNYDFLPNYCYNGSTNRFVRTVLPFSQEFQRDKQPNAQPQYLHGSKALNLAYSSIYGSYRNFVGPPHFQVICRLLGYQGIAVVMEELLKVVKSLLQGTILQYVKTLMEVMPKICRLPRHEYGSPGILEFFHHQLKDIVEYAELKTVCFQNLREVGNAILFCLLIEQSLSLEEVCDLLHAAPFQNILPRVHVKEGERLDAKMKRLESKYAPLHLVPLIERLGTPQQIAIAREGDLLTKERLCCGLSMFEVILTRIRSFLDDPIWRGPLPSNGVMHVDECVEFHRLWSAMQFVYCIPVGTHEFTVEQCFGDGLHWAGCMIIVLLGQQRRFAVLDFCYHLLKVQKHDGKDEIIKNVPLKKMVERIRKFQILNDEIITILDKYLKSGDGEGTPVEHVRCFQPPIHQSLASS
T2 sequence (P21127 whole entry): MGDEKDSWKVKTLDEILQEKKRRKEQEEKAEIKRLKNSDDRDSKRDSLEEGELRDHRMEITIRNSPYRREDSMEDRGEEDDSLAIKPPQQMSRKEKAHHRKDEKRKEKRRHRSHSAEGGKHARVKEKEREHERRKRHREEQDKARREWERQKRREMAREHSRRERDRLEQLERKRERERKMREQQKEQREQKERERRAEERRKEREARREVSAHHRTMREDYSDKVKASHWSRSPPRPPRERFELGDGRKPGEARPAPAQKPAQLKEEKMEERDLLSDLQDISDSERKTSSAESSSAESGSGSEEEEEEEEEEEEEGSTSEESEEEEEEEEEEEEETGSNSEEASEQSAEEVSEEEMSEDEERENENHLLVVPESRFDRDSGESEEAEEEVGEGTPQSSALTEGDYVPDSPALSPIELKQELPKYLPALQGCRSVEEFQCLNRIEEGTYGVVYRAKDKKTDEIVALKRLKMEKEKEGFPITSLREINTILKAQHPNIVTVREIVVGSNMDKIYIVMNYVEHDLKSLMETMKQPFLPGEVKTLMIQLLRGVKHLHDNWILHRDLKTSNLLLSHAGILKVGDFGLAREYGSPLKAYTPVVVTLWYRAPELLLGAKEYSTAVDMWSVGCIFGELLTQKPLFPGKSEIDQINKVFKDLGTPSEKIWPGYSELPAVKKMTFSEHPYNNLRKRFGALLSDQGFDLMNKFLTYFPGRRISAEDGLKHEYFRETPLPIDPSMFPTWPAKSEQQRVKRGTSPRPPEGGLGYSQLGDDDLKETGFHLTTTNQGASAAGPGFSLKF

As to `CC(C)(CN)c1nc(-c2ccc(Cl)c(O)c2)c(-c2ccncc2)[nH]1` [MMV030084], the IC50 (in general, the point on the concentration scale where inhibition reaches its midpoint) in experiment [1] is 0.317 µM; in experiment [2] it was 0.307 µM; in experiment [3] (Plasmodium falciparum, DD2, 72 h, read-out: Mean IC50, 72 h ABS activity, Dd2-B2 wild-type, 72 h), 0.12 µM; in experiment [3] (read-out: Mean IC50, 72 h ABS activity, Dd2-B2 wild-type, 72 h), 0.12 µM; in experiment [4], at least 30 µM; in experiment [5], at least 30 µM.
